This note sets out measurements from patent US12240844B2 (Voronoi, Inc., priority 2019, dated 2025).

Assay [1] has as its target T1, human GST-DYRK1A (full length) (Homo sapiens, UniProt Q13627).
T1 construct: purified human GST-DYRK1A (full length, Thermo scientifics) enzyme; GST; purchased Thermo scientifics
Briefly: GST-DYRK1A enzyme inhibition, ADP-Glo kinase assay. Conditions: read-out: DYRK1 IC50. Format: biochemical. Summed up:
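Full-length human GST-DYRK1A (10 ng) incubated with 10 uM ATP and specific substrate for 1 h at 25° C in 40 mM Tris-HCl pH 7.4, 20 mM MgCl2, 0.5 mg/mL BSA, 50 uM DTT. ADP formation read by ADP-Glo luminescence; IC50 (nM) versus solvent control, triplicate.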
On the technique in general: In ADP-Glo the light output rises with the ADP produced.

Another assay addresses T2, human GST-CLK1 (129-end) (Homo sapiens, UniProt P49759).
T2 construct: purified human GST-CLK1 (129-end, Signalchem) enzyme; GST; purchased Signalchem
Put plainly: GST-CLK1 enzyme inhibition, ADP-Glo kinase assay. Format: biochemical. The note with it: ATP 10 uM. Summed up:
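GST-CLK1 (129-end, 3 ng) reacted with 10 uM ATP and substrate in 40 mM Tris-HCl pH 7.4, 20 mM MgCl2, 0.5 mg/mL BSA, 50 uM DTT, 1 h at 25° C. ADP-Glo luminescence normalised to solvent control; IC50 from triplicate data.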

Another assay addresses LRRK2 (G2019S) (Homo sapiens, UniProt Q5S007, G2019S). Put plainly: scanMAX Kinase panel (DiscoverX), % control. The format is binding. Details: purchased DiscoverX. The note with it: <35% = active. How it is done: (§1) Specifically, for Examples 162, 160, 105, 217, 205, 96, 207, 184, 206, 221, 238, and 237 selected among the example compounds of the present invention, it was decided to measure enzyme (kinase) selectivity by DiscoverX, and the experiment was conducted using a panel for scanMAX™ Kinase analysis. At this time, the concentration of the drug treated with the enzyme was 1 uM in DMSO, the control percentage (% control) was determined in the same way as in Equation 1 below, and the results were shown in Table 6 below. [formula] Here, the positive control refers to a compound showing a control percentage of 0%, and the negative control is DMSO, indicating a control percentage of 100%. Also, in the enzyme selectivity of the present invention, if the control percentage for each enzyme was <35% (i.e., less than 35%), it was determined to have activity against the relevant enzyme.

The target of assay [2] is T3, LRRK2 (Homo sapiens, UniProt Q5S007). Put plainly: scanMAX Kinase panel (DiscoverX), % control. Format: binding. The note with it: <35% = active. Also noted: purchased DiscoverX. How it is done:
as §1
Target sequence in this assay (Q5S007 whole entry): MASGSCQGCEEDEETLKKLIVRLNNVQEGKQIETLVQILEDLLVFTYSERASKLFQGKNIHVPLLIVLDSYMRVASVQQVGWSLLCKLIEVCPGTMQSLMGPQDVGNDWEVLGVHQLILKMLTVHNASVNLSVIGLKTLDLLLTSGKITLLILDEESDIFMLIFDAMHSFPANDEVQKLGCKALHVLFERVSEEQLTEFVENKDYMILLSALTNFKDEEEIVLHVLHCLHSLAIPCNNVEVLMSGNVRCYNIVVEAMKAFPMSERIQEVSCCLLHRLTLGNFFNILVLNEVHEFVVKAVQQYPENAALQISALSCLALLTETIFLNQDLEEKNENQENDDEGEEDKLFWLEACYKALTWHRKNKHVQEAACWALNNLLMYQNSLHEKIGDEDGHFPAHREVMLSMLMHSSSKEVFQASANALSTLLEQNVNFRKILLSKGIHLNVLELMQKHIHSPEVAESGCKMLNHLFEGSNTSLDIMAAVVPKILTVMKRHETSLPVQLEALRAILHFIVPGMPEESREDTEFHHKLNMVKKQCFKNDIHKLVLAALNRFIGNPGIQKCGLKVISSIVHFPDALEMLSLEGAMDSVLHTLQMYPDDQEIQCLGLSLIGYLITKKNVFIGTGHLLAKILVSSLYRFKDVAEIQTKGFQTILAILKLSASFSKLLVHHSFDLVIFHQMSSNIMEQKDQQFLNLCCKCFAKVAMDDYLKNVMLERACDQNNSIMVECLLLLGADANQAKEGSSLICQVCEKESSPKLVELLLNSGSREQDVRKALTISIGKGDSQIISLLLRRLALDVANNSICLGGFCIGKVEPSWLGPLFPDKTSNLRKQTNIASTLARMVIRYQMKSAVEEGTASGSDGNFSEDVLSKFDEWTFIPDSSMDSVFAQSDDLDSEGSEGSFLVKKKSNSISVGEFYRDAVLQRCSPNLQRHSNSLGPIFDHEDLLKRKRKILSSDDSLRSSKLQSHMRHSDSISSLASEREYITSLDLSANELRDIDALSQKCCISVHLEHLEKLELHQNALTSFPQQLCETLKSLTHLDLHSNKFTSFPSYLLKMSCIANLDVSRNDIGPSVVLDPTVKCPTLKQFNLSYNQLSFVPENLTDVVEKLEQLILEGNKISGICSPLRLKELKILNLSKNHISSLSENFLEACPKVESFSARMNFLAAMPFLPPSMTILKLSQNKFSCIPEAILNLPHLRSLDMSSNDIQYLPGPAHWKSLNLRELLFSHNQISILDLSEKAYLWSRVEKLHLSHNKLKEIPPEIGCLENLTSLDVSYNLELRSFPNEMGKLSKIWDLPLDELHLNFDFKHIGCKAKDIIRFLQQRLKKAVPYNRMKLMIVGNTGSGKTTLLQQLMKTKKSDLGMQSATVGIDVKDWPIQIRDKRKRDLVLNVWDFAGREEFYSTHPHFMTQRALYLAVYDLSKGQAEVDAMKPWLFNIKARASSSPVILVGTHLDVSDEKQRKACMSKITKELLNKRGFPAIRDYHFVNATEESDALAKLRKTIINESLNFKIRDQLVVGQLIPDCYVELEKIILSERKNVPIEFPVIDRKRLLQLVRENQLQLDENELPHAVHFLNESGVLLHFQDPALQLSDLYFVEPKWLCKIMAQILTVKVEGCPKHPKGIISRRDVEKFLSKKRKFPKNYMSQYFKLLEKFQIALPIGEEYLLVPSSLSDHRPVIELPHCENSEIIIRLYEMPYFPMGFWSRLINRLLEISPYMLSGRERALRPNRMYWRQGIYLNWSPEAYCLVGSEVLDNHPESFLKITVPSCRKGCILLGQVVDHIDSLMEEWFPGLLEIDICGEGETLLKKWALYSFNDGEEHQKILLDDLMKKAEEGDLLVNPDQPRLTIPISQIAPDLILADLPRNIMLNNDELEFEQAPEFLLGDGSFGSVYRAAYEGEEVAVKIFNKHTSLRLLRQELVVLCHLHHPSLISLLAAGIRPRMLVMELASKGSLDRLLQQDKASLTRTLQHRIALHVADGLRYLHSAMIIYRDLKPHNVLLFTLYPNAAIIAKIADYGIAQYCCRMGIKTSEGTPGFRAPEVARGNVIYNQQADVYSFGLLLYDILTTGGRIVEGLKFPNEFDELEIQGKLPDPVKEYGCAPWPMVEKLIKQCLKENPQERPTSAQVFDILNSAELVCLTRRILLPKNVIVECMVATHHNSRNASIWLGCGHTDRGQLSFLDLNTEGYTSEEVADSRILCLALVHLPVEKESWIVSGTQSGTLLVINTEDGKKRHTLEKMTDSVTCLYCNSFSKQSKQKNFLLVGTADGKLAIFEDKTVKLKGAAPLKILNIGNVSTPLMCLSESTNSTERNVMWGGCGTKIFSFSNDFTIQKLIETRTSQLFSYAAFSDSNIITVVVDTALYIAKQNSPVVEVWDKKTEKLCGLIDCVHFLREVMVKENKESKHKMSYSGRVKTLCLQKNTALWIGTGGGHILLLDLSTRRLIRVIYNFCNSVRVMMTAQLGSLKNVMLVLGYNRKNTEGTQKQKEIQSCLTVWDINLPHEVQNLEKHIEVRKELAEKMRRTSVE

In assay [3] the target is T3, LRRK2. Put plainly: LRRK2 enzyme inhibition, ADP-Glo kinase assay. Format: biochemical. Also noted: purchased Invitrogen PR8604B. A digest of the protocol: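 Purified human LRRK2 (25 ng) in 40 mM Tris-HCl pH7.4, 20 mM MgCl2, 0.5 mg/ml BSA, 50 μM DTT with 10 μM ATP and substrate ([…]), 2 h at 25° C. Final compound 50 to 0.000001024 μM, 12-point dilution. ADP-Glo luminescence vs solvent control; IC50 (nM).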
Target sequence in this assay (Q5S007 970-2527 limits assumed): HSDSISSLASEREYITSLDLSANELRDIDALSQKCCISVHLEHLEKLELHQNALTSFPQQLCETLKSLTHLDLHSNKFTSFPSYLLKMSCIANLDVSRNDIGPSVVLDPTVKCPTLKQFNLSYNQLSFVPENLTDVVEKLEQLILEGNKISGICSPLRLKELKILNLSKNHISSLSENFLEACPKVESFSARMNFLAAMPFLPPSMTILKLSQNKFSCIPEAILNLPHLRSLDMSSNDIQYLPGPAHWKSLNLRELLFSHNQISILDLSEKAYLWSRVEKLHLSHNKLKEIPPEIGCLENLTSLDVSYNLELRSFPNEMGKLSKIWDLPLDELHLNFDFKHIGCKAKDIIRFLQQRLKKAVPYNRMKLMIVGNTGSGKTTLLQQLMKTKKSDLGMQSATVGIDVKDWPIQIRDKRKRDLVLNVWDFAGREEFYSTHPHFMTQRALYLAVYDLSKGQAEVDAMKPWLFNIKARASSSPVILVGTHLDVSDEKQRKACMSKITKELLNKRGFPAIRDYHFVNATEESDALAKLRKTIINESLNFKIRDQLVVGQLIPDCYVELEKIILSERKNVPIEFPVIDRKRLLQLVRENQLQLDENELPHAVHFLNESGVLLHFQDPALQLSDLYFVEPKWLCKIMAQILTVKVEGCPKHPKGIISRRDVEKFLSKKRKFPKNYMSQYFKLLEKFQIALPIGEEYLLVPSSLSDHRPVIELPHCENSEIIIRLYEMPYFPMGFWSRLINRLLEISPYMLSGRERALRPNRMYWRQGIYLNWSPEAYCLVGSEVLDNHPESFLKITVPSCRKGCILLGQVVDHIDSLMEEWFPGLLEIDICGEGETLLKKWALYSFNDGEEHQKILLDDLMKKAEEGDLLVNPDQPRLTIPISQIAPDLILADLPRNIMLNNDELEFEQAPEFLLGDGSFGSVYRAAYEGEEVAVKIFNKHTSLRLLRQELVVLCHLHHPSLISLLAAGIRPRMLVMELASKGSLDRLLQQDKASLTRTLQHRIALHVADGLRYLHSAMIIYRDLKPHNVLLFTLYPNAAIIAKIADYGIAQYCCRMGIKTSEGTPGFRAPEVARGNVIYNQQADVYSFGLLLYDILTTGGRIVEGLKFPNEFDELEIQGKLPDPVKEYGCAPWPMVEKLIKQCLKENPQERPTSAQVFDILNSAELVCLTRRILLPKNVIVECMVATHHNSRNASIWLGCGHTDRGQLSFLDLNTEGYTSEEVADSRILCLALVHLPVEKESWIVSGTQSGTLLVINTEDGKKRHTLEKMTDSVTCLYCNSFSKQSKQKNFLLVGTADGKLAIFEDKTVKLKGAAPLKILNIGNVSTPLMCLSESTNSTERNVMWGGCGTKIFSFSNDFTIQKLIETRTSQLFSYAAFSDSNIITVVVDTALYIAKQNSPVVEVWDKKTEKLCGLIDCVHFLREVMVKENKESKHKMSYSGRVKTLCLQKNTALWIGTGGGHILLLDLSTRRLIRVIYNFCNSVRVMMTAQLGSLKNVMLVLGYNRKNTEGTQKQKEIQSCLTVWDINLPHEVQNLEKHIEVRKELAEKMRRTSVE

Broadly, the IC50 is the midpoint of a concentration-inhibition curve.

Structures are written as SMILES. A value given as a limit tells only on which side of the number the result lay.

LRRK2 (G2019S), sequence (Q5S007 whole entry G2019S): as the sequence (Q5S007 whole entry) above, with G2019S counted along it
T2 sequence (P49759 129-484 limits assumed): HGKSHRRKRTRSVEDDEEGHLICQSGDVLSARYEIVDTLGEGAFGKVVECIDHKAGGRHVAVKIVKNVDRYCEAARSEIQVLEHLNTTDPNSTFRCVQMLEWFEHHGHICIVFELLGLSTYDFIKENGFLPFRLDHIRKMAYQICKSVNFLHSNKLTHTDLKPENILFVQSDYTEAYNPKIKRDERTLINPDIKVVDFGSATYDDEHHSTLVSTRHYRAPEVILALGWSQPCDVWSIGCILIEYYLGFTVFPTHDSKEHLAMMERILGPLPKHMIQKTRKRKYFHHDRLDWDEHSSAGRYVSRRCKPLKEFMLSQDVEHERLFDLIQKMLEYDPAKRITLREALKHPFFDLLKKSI

With `CCCNc1cc(Nc2ccc(C(=O)N3CCC(N4CCOCC4)CC3)c3c2OCCO3)nc2[nH]cc(C(F)(F)F)c12` [Example 162, (4-morpholinopiperidin-1-yl)(8-((4-(propylamino)-3-(trifluoromethyl)-1H-pyrrolo[2,3-b]pyridin-6-yl)amino)-2,3-dihydrobenzo[b] [1,4]dioxin-5-yl)methanone], the concentration for half-maximal inhibition (IC50) is 101 to 300 nM in assay [1], less than 100 nM against human GST-CLK1 (129-end) and less than 100 nM against LRRK2 [3]. For the same compound, the remaining binding at 1 µM came to 0.35% on LRRK2 (G2019S) and 2.8% on LRRK2 [2].

For `CNc1cc(Nc2ccc(P3(=O)CCN(C4CC4)CC3)cc2OC)nc2[nH]cc(C(F)(F)F)c12` [Example 205, 1-cyclopropyl-4-(3-methoxy-4-((4-(methylamino)-3-(trifluoromethyl)-1H-pyrrolo[2,3-b]pyridin-6-yl)amino)phenyl)-1,4-azaphosphinane 4-oxide], the half-inhibitory concentration (IC50) in assay [1] is less than 100 nM; on human GST-CLK1 (129-end) it was less than 100 nM; against LRRK2 [3], 101 to 300 nM. Moreover, the remaining binding at 1 µM is 17% at LRRK2 (G2019S) and 18% at LRRK2 [2].

In the case of `O=C(c1ccc(Nc2cc(C3CC3)c3c(C(F)(F)F)c[nH]c3n2)c2c1CCO2)N1CC[C@@H](N2CCOCC2)C1` [Example 238, (R)-(7-((4-cyclopropyl-3-(trifluoromethyl)-1H-pyrrolo[2,3-b]pyridin-6-yl)amino)-2,3-dihydrobenzofuran-4-yl)(3-morpholinopyrrolidin-1-yl)methanone], the results for the remaining binding at 1 µM at LRRK2 (G2019S) and on LRRK2 [2] were 38% and 48%, respectively.

Consider `CCNc1cc(Nc2ccc(S(=O)(=O)N3CCC(N4CCOCC4)CC3)c3c2OCCO3)nc2[nH]cc(C(F)(F)F)c12` [Example 96, N^4-ethyl-N^6-(8-((4-morpholonopiperidin-1-yl)sulfonyl)-2,3-dihydrobenzo [b] [1,4]dioxin-5-yl)-3-(trifluoromethyl)-1H-pyrrolo[2,3-b]pyridine-4,6-diamine], for which the IC50 in assay [1] was 301 to 1000 nM; against human GST-CLK1 (129-end), 101 to 300 nM; against LRRK2 [3], less than 100 nM. Moreover, the values for the remaining binding at 1 µM at LRRK2 (G2019S) and on LRRK2 [2] were 1.9% and 4.5%, respectively.

As to `CCNc1cc(Nc2ccc(P3(=O)CCN(C4CC4)CC3)cc2OC)nc2[nH]cc(C(F)(F)F)c12` [Example 206, 1-cyclopropyl-4-(4-((4-(ethylamino)-3-(trifluoromethyl)-1H-pyrrolo[2,3-b]pyridin-6-yl)amino)-3-methoxyphenyl)-1,4-azaphosphinane 4-oxide], the 50% inhibitory concentration (IC50) was 301 to 1000 nM in assay [1], 301 to 1000 nM at human GST-CLK1 (129-end) and 101 to 300 nM against LRRK2 [3]. For the same compound, the remaining binding at 1 µM turned out to be 28% on LRRK2 (G2019S) and 23% on LRRK2 [2].

With `O=C(c1ccc(Nc2cc(C3CC3)c3c(C(F)(F)F)c[nH]c3n2)c2c1OCCO2)N1CCC(N2CCOCC2)CC1` [Example 221, (8-((4-cyclopropyl-3-(trifluoromethyl)-1H-pyrrolo[2,3-b]pyridin-6-yl)amino)-2,3-dihydrobenzo [b] [1,4]dioxin-5-yl)(4-morpholinopiperidin-1-yl)methanone], the concentration for half-maximal inhibition (IC50) against human GST-CLK1 (129-end) is less than 100 nM; against LRRK2 [3], 101 to 300 nM. Moreover, the remaining binding at 1 µM on LRRK2 (G2019S) worked out at 5.5%; at LRRK2 [2], 14%.

On to `CNc1cc(Nc2ccc(C(=O)N3CCC(N4CCOCC4)CC3)c3c2OCC3)nc2[nH]cc(C(F)(F)F)c12` [Example 234, (7-((4-(methylamino)-3-(trifluoromethyl)-1H-pyrrolo[2,3-b]pyridin-6-yl)amino)-2,3-dihydrobenzofuran-4-yl)(4-morpholinopiperidin-1-yl)methanone], for which the IC50 (in assay [1]; against human GST-CLK1 (129-end); on LRRK2 [3]) was less than 100 nM each time.

As to `CCNc1cc(Nc2ccc(P3(=O)CCN(C(C)=O)CC3)cc2OC)nc2[nH]cc(C(F)(F)F)c12` [Example 42, 1-(4-(4-((4-(ethylamino)-3-(trifluoromethyl)-1H-pyrrolo[2,3-b]pyridin-6-yl)amino)-3-methoxyphenyl)-4-oxido-1,4-azaphosphinan-1-yl)ethan-1-one], the figures for the half-maximal inhibitory concentration (IC50) (in assay [1]; against human GST-CLK1 (129-end); against LRRK2 [3]) were less than 100 nM, 101 to 300 nM and less than 100 nM, respectively.

In the case of `CCNc1cc(Nc2ccc(C(=O)N3CCN(C4COC4)CC3)c3c2OCCO3)nc2[nH]cc(C(F)(F)F)c12` [Example 173, (8-((4-(ethylamino)-3-(trifluoromethyl)-1H-pyrrolo[2,3-b]pyridin-6-yl)amino)-2,3-dihydrobenzo[b] [1,4]dioxin-5-yl)(4-(oxetan-3-yl)piperazin-1-yl)methanone], the half-inhibitory concentration (IC50) (in assay [1]; at human GST-CLK1 (129-end); at LRRK2 [3]) was less than 100 nM throughout.

As for `O=C(c1ccc(Nc2cc(C3CC3)c3c(C(F)(F)F)c[nH]c3n2)c2c1OCCO2)N1CCOCC1` [Example 220, (8-((4-cyclopropyl-3-(trifluoromethyl)-1H-pyrrolo[2,3-b]pyridin-6-yl)amino)-2,3-dihydrobenzo[b] [1,4]dioxin-5-yl)(morpholino) methanone], the IC50 (in assay [1]; against human GST-CLK1 (129-end); against LRRK2 [3]) was 301 to 1000 nM each time.

As to `COCCNc1cc(Nc2ccc(P3(=O)CCN(C4CC4)CC3)cc2OC)nc2[nH]cc(C#N)c12` [Example 148, 6-((4-(1-cyclopropyl-4-oxido-1,4-azaphosphinan-4-yl)-2-methoxyphenyl)amino)-4-((2-methoxyethyl)amino)-1H-pyrrolo[2,3-b]pyridine-3-carbonitrile], the half-maximal inhibitory concentration (IC50) in assay [1] is 301 to 1000 nM; against human GST-CLK1 (129-end) it was 301 to 1000 nM; against LRRK2 [3], less than 100 nM.

On to `CNc1cc(Nc2ccc(S(=O)(=O)N3CCC(N4CCOCC4)CC3)c3c2OCCO3)nc2[nH]cc(C(F)(F)F)c12` [Example 233, N^4-methyl-N^6-(8-((4-morpholinopiperidin-1-yl)sulfonyl)-2,3-dihydrobenzo [b] [1,4]dioxin-5-yl)-3-(trifluoromethyl)-1H-pyrrolo[2,3-b]pyridine-4,6-diamine], for which the 50% inhibitory concentration (IC50) in assay [1] was 101 to 300 nM; on human GST-CLK1 (129-end), less than 100 nM; on LRRK2 [3], less than 100 nM.

In the case of `COc1cc(S(=O)(=O)N2CCC(N3CCOCC3)CC2)ccc1Nc1cc(NCCS(C)(=O)=O)c2c(C(F)(F)F)c[nH]c2n1` [Example 194, N^6-(2-methoxy-4-((4-morpholinopiperidin-1-yl)sulfonyl)phenyl)-N^4-(2-(methylsulfonyl)ethyl)-3-(trifluoromethyl)-1H-pyrrolo[2,3-b]pyridine-4,6-diamine], the IC50 (in assay [1]; against human GST-CLK1 (129-end); on LRRK2 [3]) was less than 100 nM each time.

Regarding `CNc1cc(Nc2ccc(S(=O)(=O)N3CCC(N4CCOCC4)CC3)cc2OC)nc2[nH]cc(C(F)(F)F)c12` [Example 184, N^6-(2-methoxy-4-((4-morpholinopiperidin-1-yl)sulfonyl)phenyl)-N^4-methyl-3-(trifluoromethyl)-1H-pyrrolo[2,3-b]pyridine-4,6-diamine], the remaining binding at 1 µM on LRRK2 (G2019S) worked out at 3.2%; at LRRK2 [2], 3.8%.

With `O=C(c1ccc(Nc2cc(C3CC3)c3c(C(F)(F)F)c[nH]c3n2)c2c1CCO2)N1CC[C@H](N2CCOCC2)C1` [Example 237, (S)-(7-((4-cyclopropyl-3-(trifluoromethyl)-1H-pyrrolo[2,3-b]pyridin-6-yl)amino)-2,3-dihydrobenzofuran-4-yl)(3-morpholinopyrrolidin-1-yl)methanone], the figures for the remaining binding at 1 µM on LRRK2 (G2019S) and at LRRK2 [2] were 31% and 36%, respectively.

As to `CNc1cc(Nc2ccc(P3(=O)CCN(C4CC4)CC3)cc2OC)nc2[nH]cc(C#N)c12` [Example 146, 6-((4-(1-cyclopropyl-4-oxido-1,4-azaphosphinan-4-yl)-2-methoxyphenyl)amino)-4-(methylamino)-1H-pyrrolo[2,3-b]pyridine-3-carbonitrile], the IC50 is 301 to 1000 nM in assay [1], 301 to 1000 nM on human GST-CLK1 (129-end) and less than 100 nM against LRRK2 [3].

Take `CNc1cc(Nc2ccc(C(=O)N3CC[C@@H](N4CCOCC4)C3)c3c2OCC3)nc2[nH]cc(C(F)(F)F)c12` [Example 214, (R)-(7-((4-(methylamino)-3-(trifluoromethyl)-1H-pyrrolo[2,3-b]pyridin-6-yl)amino)-2,3-dihydrobenzofuran-4-yl)(3-morpholinopyrrolidin-1-yl)methanone]: the IC50 (in assay [1]; against human GST-CLK1 (129-end); against LRRK2 [3]) was less than 100 nM in each case.
